For test [1], the system named is T1, Cryptococcus neoformans (H99).
T1 construct: H99
Briefly: microbe, parasite or virus in culture. The conditions noted are these: Cryptococcus neoformans, read-out: MIC (μg/mL) against: / Cryptococcus neoformans (H99)^a. The arrangement: CLSI M27-A3 broth microdilution in RPMI 1640 at 37 C, growth inhibition of C. neoformans (MIC). The procedure: In vitro antifungal activities of FK506, FK520, and analogs were assessed in RPMI 1640 (Sigma-Aldrich) for all strains tested. MICs/minimum effective concentrations (MECs) for each drug were measured using modified Clinical and Laboratory Standards Institute (CLSI) M38-A2 and M27-A3 standard in vitro antifungal susceptibility protocols. Broth microdilution assays for MIC/MEC assessment were performed as described previously ([33]). All antifungal assays with C. neoformans were performed at 37°C. Antifungal susceptibility testing for C. albicans was performed in the presence of a uniform 1 μg/mL concentration of fluconazole to sensitize the organism to calcineurin inhibition. MICs/minimum effective concentrations (MECs) were determined for each of the novel analogs against the three major human fungal pathogens, A. fumigatus, C. neoformans, and C. albicans. […] Thus, analogs of FK506 and FK520 can tolerate up to 100-fold reduction in antifungal activity and still be considered for in vivo testing. For C. neoformans, MICs were the most uniform and ranged from 0.2 to 2 μg/mL, which is between 4- and 40-fold reduced for antifungal activity. C. albicans MICs ranged from 0.2 to 6.25 μg/mL, which is between 10- and 312.5-fold reduced for activity. Despite being one of the most difficult to treat fungal infections, all six analogs were active against A. fumigatus with MECs ranging from 1 to 2 μg/mL or a 62.5- to 125-fold reduction in activity.

The target of another test is T2, FKBP12 (Candida albicans, UniProt C4YFI3+C4YS24+P28870).
T2 construct: gene RBP1; biotinylated (Avi-tagged) FKBP12; with CnA-CnB-calmodulin
T2 sequence (P28870 whole entry): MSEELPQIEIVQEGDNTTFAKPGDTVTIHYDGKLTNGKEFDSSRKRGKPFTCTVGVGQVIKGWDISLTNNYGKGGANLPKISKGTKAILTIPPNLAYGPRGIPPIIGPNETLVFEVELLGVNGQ
T2 sequence (C4YFI3 54-445): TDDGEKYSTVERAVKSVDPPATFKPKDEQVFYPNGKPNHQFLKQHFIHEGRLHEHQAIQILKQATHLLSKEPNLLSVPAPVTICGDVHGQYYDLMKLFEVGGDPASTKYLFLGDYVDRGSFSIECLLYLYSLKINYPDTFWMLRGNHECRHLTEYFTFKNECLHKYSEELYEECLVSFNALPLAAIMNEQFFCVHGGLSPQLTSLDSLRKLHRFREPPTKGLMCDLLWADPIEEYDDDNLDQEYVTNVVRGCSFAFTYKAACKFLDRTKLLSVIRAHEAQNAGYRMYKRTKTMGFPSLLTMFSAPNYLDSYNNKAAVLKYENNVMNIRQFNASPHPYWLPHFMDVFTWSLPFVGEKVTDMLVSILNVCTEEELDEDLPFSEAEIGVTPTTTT
T2 sequence (C4YS24 1-173): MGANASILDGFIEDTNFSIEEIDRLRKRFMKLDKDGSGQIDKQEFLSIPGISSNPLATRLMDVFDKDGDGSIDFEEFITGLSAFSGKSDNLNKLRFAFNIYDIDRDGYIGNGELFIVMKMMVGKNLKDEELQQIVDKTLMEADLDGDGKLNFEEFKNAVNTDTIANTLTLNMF
T2 sequence (P23286 whole entry partner): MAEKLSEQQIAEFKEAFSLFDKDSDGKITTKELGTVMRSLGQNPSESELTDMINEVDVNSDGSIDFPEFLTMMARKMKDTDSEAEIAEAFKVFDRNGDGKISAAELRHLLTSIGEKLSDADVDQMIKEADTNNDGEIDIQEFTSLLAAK
Briefly: BLI, compound-mediated ternary complex formation, […] compound. In kind it is binding.

≈ marks a conversion by molar mass, not a printed value.

Turning to `C=CC[C@@H]1/C=C(\C)C[C@H](C)C[C@H](OC)[C@H]2O[C@@](O)(C(=O)C(=O)N3CCCC[C@H]3C(=O)O[C@H](/C(C)=C/[C@@H]3CC[C@@H](O)[C@H](OC)C3)[C@H](C)[C@@H](O)C/C1=N/NC(C)=O)[C@H](C)C[C@@H]2OC` [JH-FK-01, APX879], the MIC in test [1] is 1 µg/mL (≈ 1.16 µM). Turning to `C=CC[C@@H]1/C=C(\C)C[C@H](C)C[C@H](OC)[C@H]2O[C@@](O)(C(=O)C(=O)N3CCCC[C@H]3C(=O)O[C@H](/C(C)=C/[C@@H]3CC[C@@H](O)[C@H](OC)C3)[C@H](C)[C@@H](O)CC1=O)[C@H](C)C[C@@H]2OC` [FK506], the MIC in test [1] is 0.05 µg/mL (≈ 0.0622 µM). Also, on FKBP12, the “BLI, compound-mediated ternary complex formation, 10 μM compound” value was “along with compounds FK506, APX879, FK520, JH-FK-02, and JH-FK-05”.

The values above are taken from article PMC9239059, “Structure-Guided Synthesis of FK506 and FK520 Analogs with Increased Selectivity Exhibit In Vivo Therapeutic Efficacy against Cryptococcus” (mBio, 2022).
